Laboratory results reported in the NIST ThermoML archive (doi:10.1016/j.jct.2018.04.018).
Values joined by “and” are separate entries in the source; they are usually repeats but may differ in a detail not shown here. Identical values can stand only once.

Conditions: 101.33 kPa, Liquid; for mass density: Vibrating tube method; for speed of sound: Single path-length method

CCCCCCCC[n+]1ccn(C)c1.F[P-](F)(F)(F)(F)F [1-octyl-3-methylimidazolium hexafluorophosphate]
Conditions	viscosity
269.96 K, Cone and plate viscometry	8278 mPa·s
270.27 K, Cone and plate viscometry	7970.4 mPa·s
270.37 K, Cone and plate viscometry	7819.7 mPa·s
270.91 K, Cone and plate viscometry	7509 mPa·s
271.66 K, Cone and plate viscometry	6771 mPa·s
272.33 K, Cone and plate viscometry	6420 mPa·s
272.44 K, Cone and plate viscometry	6269.6 mPa·s
273.24 K, Cone and plate viscometry	5792.5 mPa·s
274.02 K, Cone and plate viscometry	5350.3 mPa·s
274.63 K, Cone and plate viscometry	4992.4 mPa·s
274.8 K, Cone and plate viscometry	4951.8 mPa·s
274.81 K, Cone and plate viscometry	4903 mPa·s
274.88 K, Cone and plate viscometry	4879 mPa·s
275.31 K, Cone and plate viscometry	4651.9 mPa·s
275.44 K, Cone and plate viscometry	4635.1 mPa·s
275.56 K, Cone and plate viscometry	4593.6 mPa·s
276.14 K, Cone and plate viscometry	4334 mPa·s
276.34 K, Cone and plate viscometry	4268.2 mPa·s
276.47 K, Cone and plate viscometry	4216.3 mPa·s
276.9 K, Cone and plate viscometry	4053 mPa·s
277.09 K, Cone and plate viscometry	3957.1 mPa·s
277.68 K, Cone and plate viscometry	3777 mPa·s
277.76 K, Cone and plate viscometry	3737 mPa·s
277.85 K, Cone and plate viscometry	3693.3 mPa·s
278.15 K, Concentric cylinders viscometry	3543 mPa·s
278.46 K, Cone and plate viscometry	3522.8 mPa·s
278.6 K, Cone and plate viscometry	3439.8 mPa·s
279.19 K, Cone and plate viscometry	3241 mPa·s
279.24 K, Cone and plate viscometry	3279.4 mPa·s
279.34 K, Cone and plate viscometry	3221.2 mPa·s
280.01 K, Cone and plate viscometry	3050.1 mPa·s
280.09 K, Cone and plate viscometry	3002.8 mPa·s
280.77 K, Cone and plate viscometry	2845.3 mPa·s
280.78 K, Cone and plate viscometry	2866 mPa·s
280.84 K, Cone and plate viscometry	2803.8 mPa·s
281.53 K, Cone and plate viscometry	2656.6 mPa·s
281.59 K, Cone and plate viscometry	2620.4 mPa·s
282.29 K, Cone and plate viscometry	2486.9 mPa·s
282.33 K, Cone and plate viscometry	2458 mPa·s
282.53 K, Cone and plate viscometry	2412.6 mPa·s
283.04 K, Cone and plate viscometry	2331.3 mPa·s
283.08 K, Cone and plate viscometry	2299.1 mPa·s
283.15 K, Concentric cylinders viscometry	2263.1 mPa·s
283.79 K, Cone and plate viscometry	2174 mPa·s
283.83 K, Cone and plate viscometry	2154.4 mPa·s
284.54 K, Cone and plate viscometry	2037.4 mPa·s
284.55 K, Cone and plate viscometry	2001 mPa·s
284.58 K, Cone and plate viscometry	2017.2 mPa·s
285.28 K, Cone and plate viscometry	1916 mPa·s
285.32 K, Cone and plate viscometry	1893.2 mPa·s
286.03 K, Cone and plate viscometry	1799.7 mPa·s
286.06 K, Cone and plate viscometry	1779.6 mPa·s
286.78 K, Cone and plate viscometry	1697.1 mPa·s
286.8 K, Cone and plate viscometry	1672.4 mPa·s
287.52 K, Cone and plate viscometry	1594.4 mPa·s
287.55 K, Cone and plate viscometry	1572.8 mPa·s
288.15 K, Concentric cylinders viscometry	1475.1 mPa·s
288.27 K, Cone and plate viscometry	1496.8 mPa·s
288.29 K, Cone and plate viscometry	1479.3 mPa·s
289.02 K, Cone and plate viscometry	1407.5 mPa·s
289.03 K, Cone and plate viscometry	1391.9 mPa·s
289.76 K, Cone and plate viscometry	1327.8 mPa·s
289.78 K, Cone and plate viscometry	1313.9 mPa·s
290.5 K, Cone and plate viscometry	1253.5 mPa·s
290.52 K, Cone and plate viscometry	1241 mPa·s
291.24 K, Cone and plate viscometry	1183.2 mPa·s
291.27 K, Cone and plate viscometry	1168.4 mPa·s
291.98 K, Cone and plate viscometry	1115.8 mPa·s
292 K, Cone and plate viscometry	1101.8 mPa·s
292.73 K, Cone and plate viscometry	1053.3 mPa·s
292.75 K, Cone and plate viscometry	1040.1 mPa·s
293.15 K, Concentric cylinders viscometry	1001.1 mPa·s
293.48 K, Cone and plate viscometry	994.4 mPa·s
293.49 K, Cone and plate viscometry	984.3 mPa·s
294.22 K, Cone and plate viscometry	932.9 mPa·s
294.25 K, Cone and plate viscometry	929.4 mPa·s
294.96 K, Cone and plate viscometry	882.6 mPa·s
295.02 K, Cone and plate viscometry	879.2 mPa·s
295.71 K, Cone and plate viscometry	844.7 mPa·s
295.79 K, Cone and plate viscometry	829.3 mPa·s
296.47 K, Cone and plate viscometry	798 mPa·s
296.57 K, Cone and plate viscometry	784.2 mPa·s
297.2 K, Cone and plate viscometry	757 mPa·s
297.33 K, Cone and plate viscometry	741.5 mPa·s
297.94 K, Cone and plate viscometry	718 mPa·s
298.08 K, Cone and plate viscometry	705.1 mPa·s
298.15 K, Concentric cylinders viscometry	691.2 mPa·s
298.69 K, Cone and plate viscometry	682.3 mPa·s
298.82 K, Cone and plate viscometry	668.2 mPa·s
299.43 K, Cone and plate viscometry	647.5 mPa·s
299.55 K, Cone and plate viscometry	632.9 mPa·s
300.16 K, Cone and plate viscometry	614.6 mPa·s
300.28 K, Cone and plate viscometry	601.2 mPa·s
300.91 K, Cone and plate viscometry	584.1 mPa·s
301 K, Cone and plate viscometry	572.3 mPa·s
301.65 K, Cone and plate viscometry	555.5 mPa·s
301.73 K, Cone and plate viscometry	545 mPa·s
302.39 K, Cone and plate viscometry	528.9 mPa·s
302.46 K, Cone and plate viscometry	519.8 mPa·s
303.14 K, Cone and plate viscometry	502.9 mPa·s
303.15 K, Concentric cylinders viscometry	490 mPa·s
303.19 K, Cone and plate viscometry	494.3 mPa·s
303.88 K, Cone and plate viscometry	478.8 mPa·s
303.92 K, Cone and plate viscometry	470.6 mPa·s
304.62 K, Cone and plate viscometry	450.9 mPa·s
304.65 K, Cone and plate viscometry	449.1 mPa·s
305.37 K, Cone and plate viscometry	434.2 mPa·s
305.39 K, Cone and plate viscometry	429.1 mPa·s
306.11 K, Cone and plate viscometry	414.9 mPa·s
306.13 K, Cone and plate viscometry	409.9 mPa·s
306.85 K, Cone and plate viscometry	396 mPa·s
306.86 K, Cone and plate viscometry	390.9 mPa·s
307.59 K, Cone and plate viscometry	378 mPa·s
307.6 K, Cone and plate viscometry	372.5 mPa·s
308.34 K, Cone and plate viscometry	361 mPa·s
308.35 K, Cone and plate viscometry	356 mPa·s
309.09 K, Cone and plate viscometry	339.9 mPa·s and 344.9 mPa·s
309.82 K, Cone and plate viscometry	329.8 mPa·s
309.84 K, Cone and plate viscometry	325.7 mPa·s
310.57 K, Cone and plate viscometry	311.5 mPa·s and 315.9 mPa·s
311.31 K, Cone and plate viscometry	301.8 mPa·s
311.32 K, Cone and plate viscometry	297.7 mPa·s
312.05 K, Cone and plate viscometry	288.8 mPa·s
312.06 K, Cone and plate viscometry	284.9 mPa·s
312.8 K, Cone and plate viscometry	273.3 mPa·s and 275.7 mPa·s
313.15 K, Concentric cylinders viscometry	266.1 mPa·s
313.54 K, Cone and plate viscometry	264.8 mPa·s
313.55 K, Cone and plate viscometry	262 mPa·s
314.28 K, Cone and plate viscometry	254 mPa·s
314.29 K, Cone and plate viscometry	251.2 mPa·s
315.03 K, Cone and plate viscometry	240.6 mPa·s and 243.2 mPa·s
315.77 K, Cone and plate viscometry	230.6 mPa·s and 233 mPa·s
316.51 K, Cone and plate viscometry	221.6 mPa·s and 223.5 mPa·s
317.25 K, Cone and plate viscometry	213.6 mPa·s
317.26 K, Cone and plate viscometry	214.9 mPa·s
317.99 K, Cone and plate viscometry	206.5 mPa·s
318 K, Cone and plate viscometry	204 mPa·s
318.74 K, Cone and plate viscometry	196.1 mPa·s and 198.4 mPa·s
319.48 K, Cone and plate viscometry	188.3 mPa·s and 190.7 mPa·s
320.22 K, Cone and plate viscometry	181 mPa·s and 183.1 mPa·s
320.96 K, Cone and plate viscometry	174.4 mPa·s
320.97 K, Cone and plate viscometry	176 mPa·s
321.71 K, Cone and plate viscometry	168.1 mPa·s
321.72 K, Cone and plate viscometry	169.5 mPa·s
322.44 K, Cone and plate viscometry	163.6 mPa·s
322.46 K, Cone and plate viscometry	161.6 mPa·s
323.19 K, Cone and plate viscometry	155.4 mPa·s and 157.1 mPa·s
323.93 K, Cone and plate viscometry	149.8 mPa·s
323.94 K, Cone and plate viscometry	151.1 mPa·s
324.68 K, Cone and plate viscometry	144.3 mPa·s
324.69 K, Cone and plate viscometry	145.6 mPa·s
325.43 K, Cone and plate viscometry	139.3 mPa·s
325.44 K, Cone and plate viscometry	140.5 mPa·s
326.17 K, Cone and plate viscometry	135.3 mPa·s
326.18 K, Cone and plate viscometry	135.7 mPa·s
326.91 K, Cone and plate viscometry	129.5 mPa·s
326.92 K, Cone and plate viscometry	130.8 mPa·s
327.65 K, Cone and plate viscometry	124.9 mPa·s
327.67 K, Cone and plate viscometry	126 mPa·s
328.39 K, Cone and plate viscometry	120.8 mPa·s
328.46 K, Cone and plate viscometry	121.6 mPa·s
329.14 K, Cone and plate viscometry	116.8 mPa·s and 117.6 mPa·s
329.88 K, Cone and plate viscometry	112.8 mPa·s and 113.7 mPa·s
330.62 K, Cone and plate viscometry	108.9 mPa·s
330.63 K, Cone and plate viscometry	109.9 mPa·s
331.36 K, Cone and plate viscometry	105.1 mPa·s
331.37 K, Cone and plate viscometry	106 mPa·s
332.1 K, Cone and plate viscometry	102.6 mPa·s

Conditions	mass density	speed of sound [m/s]
278.15 K	1252.41 kg/m3 and 1252.42 kg/m3	–
278.16 K	1252.41 kg/m3	–
283.15 K	1248.4 kg/m3 [middle of 4 runs]	1460.8
288.15 K	1244.12 kg/m3	–
293.15 K	1240.16 kg/m3 and 1240.34 kg/m3 and 1240.35 kg/m3	1425.5
293.17 K	1240.24 kg/m3	–
298.15 K	1236.18 kg/m3	–
303.15 K	1232.68 kg/m3 and 1232.44 kg/m3 and 1232.4 kg/m3	1394.9
303.16 K	1232.32 kg/m3	–
313.15 K	1224.86 kg/m3 and 1224.73 kg/m3 and 1224.76 kg/m3	–
313.16 K	1224.63 kg/m3	1367
323.15 K	1217.09 kg/m3 and 1217.15 kg/m3	1342
323.16 K	1217.34 kg/m3	–
